The values below are quoted from earlier work in patent US20260053727A1, “PERSONAL CARE COMPOSITIONS WITH ENZYME-MODIFIED OILS (EMOS)” (GLYCOSBIO INC., priority 2023, published 2026).

The conditions of this data set: commonly known.

With `O=C([O-])c1ccccc1.[Na+]` [sodium benzoate], the antimicrobial activity result was “weakly antimicrobial”.
